In article PMC3207250 (2011):

Molecular target: Jak2 (Homo sapiens, UniProt O60674)
Assay type: biochemical

Sequence of Jak2 (O60674 whole entry): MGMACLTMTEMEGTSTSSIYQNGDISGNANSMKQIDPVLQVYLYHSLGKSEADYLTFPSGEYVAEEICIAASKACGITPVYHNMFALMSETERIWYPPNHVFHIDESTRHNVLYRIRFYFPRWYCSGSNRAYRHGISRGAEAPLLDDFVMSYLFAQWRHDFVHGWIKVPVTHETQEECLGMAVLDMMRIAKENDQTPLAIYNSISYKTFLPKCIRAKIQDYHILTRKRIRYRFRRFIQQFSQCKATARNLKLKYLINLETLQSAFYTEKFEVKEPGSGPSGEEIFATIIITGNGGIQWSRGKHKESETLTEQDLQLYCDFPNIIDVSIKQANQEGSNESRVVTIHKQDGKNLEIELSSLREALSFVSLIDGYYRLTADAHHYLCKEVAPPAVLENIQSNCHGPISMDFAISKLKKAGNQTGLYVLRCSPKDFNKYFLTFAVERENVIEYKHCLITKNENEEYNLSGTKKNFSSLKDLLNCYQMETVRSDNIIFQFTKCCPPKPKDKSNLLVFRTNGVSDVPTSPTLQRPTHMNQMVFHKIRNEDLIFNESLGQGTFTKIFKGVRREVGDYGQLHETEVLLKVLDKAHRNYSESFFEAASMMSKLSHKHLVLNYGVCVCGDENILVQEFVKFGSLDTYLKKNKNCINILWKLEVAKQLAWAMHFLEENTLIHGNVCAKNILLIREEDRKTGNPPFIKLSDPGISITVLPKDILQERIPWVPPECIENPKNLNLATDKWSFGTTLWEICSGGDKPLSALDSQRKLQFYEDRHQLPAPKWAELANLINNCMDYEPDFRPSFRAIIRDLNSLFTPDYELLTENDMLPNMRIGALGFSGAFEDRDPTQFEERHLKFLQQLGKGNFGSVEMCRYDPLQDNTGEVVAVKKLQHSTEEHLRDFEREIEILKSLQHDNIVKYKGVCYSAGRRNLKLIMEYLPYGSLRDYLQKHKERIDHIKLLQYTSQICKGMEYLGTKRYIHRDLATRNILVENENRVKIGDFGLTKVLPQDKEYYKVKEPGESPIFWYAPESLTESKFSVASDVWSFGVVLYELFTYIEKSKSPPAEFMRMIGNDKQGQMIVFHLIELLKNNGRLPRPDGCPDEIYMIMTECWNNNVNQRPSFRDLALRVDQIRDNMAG

**Q.** `NC(=O)Nc1sc(-c2ccc(F)cc2)cc1C(N)=O` [TPCA-1, 2-[(Aminocarbonyl)amino]-5-(4-fluorophenyl)-3-thiophenecarboxamide] was tested. Which Ki did it give?
**A.** ~9 nM
